Read-outs that look alike come from different tables or passages of the source.
What was measured:
[1] = target: T1, MDR1 (P-glycoprotein) (Homo sapiens, UniProt P08183); test: MDR1-MDCK permeability and efflux assay (Papp, efflux ratio, effective efflux ratio); assay type: in vitro ADME; conditions: for efflux ratio at 1 h, 10 μM / Papp A→B at 1 h, 10 μM: dog; for Papp A→B at 1 h, 10 μM: pH 7.4, read-out: Papp AB MDR1; for Papp A→B at 1 h, 10 μM / Papp AB MDR1: A->B; for EER (Effective Efflux Ratio): ER(MDR1-MDCK)/ER(wild-type MDCK); for ER MDR1 (Efflux Ratio): Papp B>A/Papp A>B
T1 construct: host or cells: MDCK (MDR1-MDCK; wild-type MDCK as comparator)
Procedure: The MDR1-MDCK effective efflux assay was performed as described in the BioFocus Standard Operating Procedure, ADME-SOP-56. Both wild-type (WT) and MDR1-MDCK cells (Solvo Biotechnology) were seeded onto 24-well Transwell plates at 2.35×10^5 cells per well and used in confluent monolayers after a 3 day culture at 37° C. under 5% CO2. For both cell types, test and control compounds (propranolol, vinblastine) were added (10 μM, 0.1% DMSO final, n=2) to donor compartments of the Transwell plate assembly in assay buffer (Hanks balanced salt solution supplemented with 25 mM HEPES, adjusted to pH 7.4) for both apical to basolateral (A>B) and basolateral to apical (B>A) measurements. Incubations were performed at 37° C., with samples removed from both donor and acceptor chambers at T=0 and 1 hour and compound analysed by mass spectrometry (LC-MS/MS) including an analytical internal standard.
Apparent permeability (Papp) values were determined from the relationship: Papp=[CompoundAcceptor T=end]×V Acceptor/([Compound Donor T=0]×V Donor)/incubation time×V Donor/Area×60×10^−6 cm/s
In this equation, V is the volume of each Transwell compartment (apical 125 μL, basolateral 600 μL), and concentrations are the relative MS responses for compound (normalized to internal standard) in the donor chamber before incubation and acceptor chamber at the end of the incubation, and Area is the area of cells exposed for drug transfer (0.33 cm^2).
Efflux ratios (Papp B>A/Papp A>B) were calculated for each compound from the mean Papp values in each direction for both wild-type and MDR1-MDCK cells.
In order to confirm the involvement of MDR1 in any efflux seen, an “effective efflux ratio” (EER) was calculated by comparing compound efflux ratios (ER) in the two cell types by the following equation: EER=ER(MDR1-MDCK)/ER(wild-type MDCK)
This ratio illustrates the effect of the over-expressed MDR1 normalised for the background movement of compound through the wild-type cells.
Lucifer Yellow (LY) was added to the apical buffer in all wells to assess viability of the cell layer. […] Recoveries<50% indicates compound solubility, stability or binding issues, thereby reducing the reliability of a result.
The inherent ability of a potential drug molecule to penetrate the blood brain barrier and avoid efflux by transporters expressed in the brain, can be roughly correlated with the Papp(A-B) and the efflux ratio (as defined above), respectively. A potential drug molecule with an apparent permeability<7 (10^−6 cm/sec) has low permeability (+), >7 (10^−6 cm/sec) but <10 (10^−6 cm/sec) has moderate permeability (++), >10 (10^−6 cm/sec) but <20 (10^−6 cm/sec) has good permeability (+++), and >20 (10^−6 cm/sec) is highly permeable (++++). High permeability in the WT and MDCK II cell permeability assay increases the probability of blood brain barrier penetration and access to the CNS. A potential drug molecule in the above assay system with an efflux ratio or effective efflux ratio of <1 has low probability of being an efflux substrate (++++), >1 but <2 has moderate probability of being an efflux substrate (+++), >2 but <3 has has an increased probability of being an efflux substrate (++), and >3 has a high probability of being an efflux substrate (+). If a potential drug molecule is an efflux substrate, the molecule will have a low probability of reaching exposures in the brain (site of action) that will result in efficacious levels of receptor occupancy.

[2] = system: Male CD-1 mice; test: AVP induced scratching, digging and grooming behavior in mouse; assay type: in vivo; conditions: po, AVP i.c.v., 15 minutes observation
Source text: Administration of Arginine-Vasopressin (AVP) intracerebroventricularly (i.c.v.) elicits characteristic scratching, digging and grooming behavior in mice that can be measured readily and is sensitive to blockade with vasopressin antagonists (Meisenberg, Ann N Y Acad Sci. 525:257-69, 1988; Bleickardt et. al., Psychopharmacology (Berl). 202(4):711-8, 2009).
Male CD-1 mice (Charles River Germany) weighing 22-25 g upon the study in-life were used for this study. Animals were housed in groups of 4-5 per cage in standard temperature (22±1° C.) and light-controlled environment (lights on from 7 am to 8 pm), with ad libitum access to food and water. Prior to commencing any procedures to the mice, they were allowed to habituate in the vivarium for a minimum of 7 days. Anesthesia was induced in a plexiglass chamber for 2-3 min with 5% isoflurane and maintained through a snout mask with 1-2% isoflurane thereafter. A homeothermic blanket system with a rectal probe was used to monitor and maintain the animal's body temperature at 37.0° C.±1.5° C. during the operation. Anesthetized mice were placed in a stereotaxic apparatus and skin between the ears shaved and disinfected with povidone-iodine solution (Betadine). A 10-μl Hamilton syringe with 28-gauge needle was used for the i.c.v. injections. All animals receive identical AVP injections (3.689 μM) or sterile saline (0.9% sodium chloride solution) into the right lateral ventricle at the following coordinates: AP=+0.5 mm; ML=+1.0 mm; DV=−2.5 mm (approximately from bregma). The actual coordinates were calculated by the distance from the point in midline between the eyes and no skin incision was made. […]
Mice were observed and video-recorded for 15 minutes following AVP/saline administration and behaviors were measured (in seconds) and a cumulative time was calculated. […] Using this assay, balovaptan (100 and 300 mg/kg, po), JNJ-17308616 (30, 100 mg/kg, po) and Compound No. 1-83B (100, 300, 500 mg/kg, po) were evaluated for antagonist activity to AVP-induced scratching behaviors.

[3] = system: wild-type (WT) MDCK cells; test: Wild-type MDCK permeability and efflux assay (Papp, efflux ratio); assay type: in vitro ADME; conditions: for Papp AB WT: A->B; for ER WT (Efflux Ratio): Papp B>A/Papp A>B
Procedure, shortened: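 Bidirectional transport measured over 1 h at 37 °C with 10 μM test compound (0.1% DMSO) in pH 7.4 HEPES-buffered HBSS across MDR1-transfected and wild-type MDCK monolayers, analysed by LC-MS/MS. Efflux ratio is B>A over A>B Papp; effective efflux ratio divides MDR1-MDCK ER by wild-type ER.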

[4] = MDCK-MDR1, pH 7.4, ER(MDR1-MDCK)/ER(wild-type MDCK), read-out: EER (Effective Efflux Ratio)
[5] = MDCK-MDR1, pH 7.4, Papp B>A/Papp A>B, MDR1-MDCK cells, read-out: ER MDR1 (Efflux Ratio)

T1 sequence (P08183 whole entry): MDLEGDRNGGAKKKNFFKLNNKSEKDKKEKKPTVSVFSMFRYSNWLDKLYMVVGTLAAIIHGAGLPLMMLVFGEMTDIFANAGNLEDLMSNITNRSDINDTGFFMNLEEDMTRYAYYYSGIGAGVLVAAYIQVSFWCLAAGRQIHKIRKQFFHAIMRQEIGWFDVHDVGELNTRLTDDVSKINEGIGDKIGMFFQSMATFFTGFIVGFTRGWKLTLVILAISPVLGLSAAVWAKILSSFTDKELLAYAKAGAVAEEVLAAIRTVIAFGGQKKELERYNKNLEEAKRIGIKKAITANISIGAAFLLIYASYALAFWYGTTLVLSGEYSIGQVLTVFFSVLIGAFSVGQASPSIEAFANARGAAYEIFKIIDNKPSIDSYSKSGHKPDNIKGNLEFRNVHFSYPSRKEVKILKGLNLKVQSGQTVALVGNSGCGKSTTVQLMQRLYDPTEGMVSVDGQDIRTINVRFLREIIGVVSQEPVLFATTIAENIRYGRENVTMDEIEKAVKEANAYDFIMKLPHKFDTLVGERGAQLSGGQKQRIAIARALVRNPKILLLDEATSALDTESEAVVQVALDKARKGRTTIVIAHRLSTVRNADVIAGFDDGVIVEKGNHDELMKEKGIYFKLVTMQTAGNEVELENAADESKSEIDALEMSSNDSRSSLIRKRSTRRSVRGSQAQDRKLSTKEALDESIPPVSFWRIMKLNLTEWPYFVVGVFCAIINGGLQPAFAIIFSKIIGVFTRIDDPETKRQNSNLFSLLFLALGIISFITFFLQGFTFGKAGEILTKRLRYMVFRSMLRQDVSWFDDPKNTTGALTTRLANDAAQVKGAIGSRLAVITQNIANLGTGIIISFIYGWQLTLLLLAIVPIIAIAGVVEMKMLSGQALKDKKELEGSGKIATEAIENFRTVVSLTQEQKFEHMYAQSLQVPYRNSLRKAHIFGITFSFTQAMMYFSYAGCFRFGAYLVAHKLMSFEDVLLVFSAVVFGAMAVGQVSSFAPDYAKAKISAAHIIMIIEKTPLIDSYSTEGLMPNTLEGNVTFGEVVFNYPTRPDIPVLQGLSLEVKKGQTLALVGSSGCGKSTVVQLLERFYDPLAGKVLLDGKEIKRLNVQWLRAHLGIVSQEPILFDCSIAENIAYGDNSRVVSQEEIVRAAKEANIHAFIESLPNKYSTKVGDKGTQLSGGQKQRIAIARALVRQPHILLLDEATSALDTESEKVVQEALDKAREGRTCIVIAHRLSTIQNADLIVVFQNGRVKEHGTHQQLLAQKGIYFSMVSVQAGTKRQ

SMILES | efflux ratio at 1 h, 10 μM [1, 4] | efflux ratio at 1 h, 10 μM [1, 5] | Papp A→B at 1 h, 10 μM ([1]; MDR1-MDCK cells) | antagonist activity to AVP-induced scratching behaviors ([2]; 300 mg/kg) | antagonist activity to AVP-induced scratching behaviors ([2]; 500 mg/kg) | Papp AB MDR1 ([1]; MDR1-MDCK cells) | EER (Effective Efflux Ratio) [1] | ER MDR1 (Efflux Ratio) ([1]; MDR1-MDCK cells) | Papp AB WT [3] | ER WT (Efflux Ratio) [3]
CC1COc2cc(Cl)ccc2N1C(=O)N1CC2(C1)CN(c1ncccn1)C2 (single isomer, unassigned) [1-83-B, (7-chloro-3-methyl-2,3-dihydro-4H-benzo[b][1,4]oxazin-4-yl)(6-(pyrimidin-2-yl)-2,6-diazaspiro[3.3]heptan-2-yl)methanone] | 1 to 2 | 1 to 2 | > 20 ×10⁻⁶ cm/s | effective | effective | – | – | – | – | –
CC1COc2cc(F)ccc2N1C(=O)N1CC2(C1)CN(c1ccc(F)cn1)C2 (single isomer, unassigned) [12-1-B] | – | – | – | – | – | ++++ (>20 (10^−6 cm/sec) is highly permeable (++++)) | +++ (>1 but <2 has moderate probability of being an efflux substrate (+++)) | ++++ (efflux ratio or effective efflux ratio of <1 has low probability of being an efflux substrate (++++)) | ++++ (>20 (10^−6 cm/sec) is highly permeable (++++)) | ++++ (efflux ratio or effective efflux ratio of <1 has low probability of being an efflux substrate (++++))
Cc1cncc(N2CC3(CN(C(=O)N4c5ccc(F)cc5OCC4C)C3)C2)n1 (single isomer, unassigned) [20-2-B] | – | – | – | – | – | ++++ (>20 (10^−6 cm/sec) is highly permeable (++++)) | +++ (>1 but <2 has moderate probability of being an efflux substrate (+++)) | +++ (>1 but <2 has moderate probability of being an efflux substrate (+++)) | ++++ (>20 (10^−6 cm/sec) is highly permeable (++++)) | ++++ (efflux ratio or effective efflux ratio of <1 has low probability of being an efflux substrate (++++))
CC1COc2cc(Cl)ccc2N1C(=O)N1CC2(C1)CN(c1cc(C#N)ccn1)C2 (single isomer, unassigned) [20-6-B] | – | – | – | – | – | ++++ (>20 (10^−6 cm/sec) is highly permeable (++++)) | ++++ (efflux ratio or effective efflux ratio of <1 has low probability of being an efflux substrate (++++)) | ++++ (efflux ratio or effective efflux ratio of <1 has low probability of being an efflux substrate (++++)) | ++++ (>20 (10^−6 cm/sec) is highly permeable (++++)) | ++++ (efflux ratio or effective efflux ratio of <1 has low probability of being an efflux substrate (++++))
Cc1nc(N2CC3(CN(C(=O)N4c5ccc(Cl)cc5OCC4C)C3)C2)ncc1F (single isomer, unassigned) [20-7-B] | – | – | – | – | – | ++++ (>20 (10^−6 cm/sec) is highly permeable (++++)) | +++ (>1 but <2 has moderate probability of being an efflux substrate (+++)) | ++++ (efflux ratio or effective efflux ratio of <1 has low probability of being an efflux substrate (++++)) | ++++ (>20 (10^−6 cm/sec) is highly permeable (++++)) | ++++ (efflux ratio or effective efflux ratio of <1 has low probability of being an efflux substrate (++++))
COc1ccnc(N2CC3(CN(C(=O)N4c5ccc(Cl)cc5OCC4C)C3)C2)n1 (stereo not shown) [20-9] | < 1 | < 1 | > 20 ×10⁻⁶ cm/s | – | – | – | – | – | – | –
Cc1nccnc1N1CC2(CN(C(=O)N3c4ccc(Cl)cc4OCC3C)C2)C1 (stereo not shown) [20-10] | < 1 | < 1 | > 20 ×10⁻⁶ cm/s | – | – | – | – | – | – | –
Cc1ccnc(N2CC3(CN(C(=O)N4c5ccc(Cl)cc5OCC4C)C3)C2)c1 (stereo not shown) [20-11] | < 1 | < 1 | > 20 ×10⁻⁶ cm/s | – | – | – | – | – | – | –
